From ChEMBL document CHEMBL1201862, “PubChem BioAssay data set” (2004)
Active and inactive are the calls of the source. For most assays here, no stated cut-off is given here; in the data, actives have a measured EC50 and inactives only a lower limit.

What was measured:
[1] = C. albicans growth with fluconazole, confirmation, fluorescence, retest (AID 2467); format: functional, cell-based
[2] = NIH-3T3 fibroblast cytotoxicity, dose response, cytotoxicity control, cell-based, fluorescence, Alamar Blue, secondary assay (AID 2327); format: functional;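 further: NIH-3T3 mouse fibroblasts cultured with fluconazole at 8 µg/mL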
[3] = target: Luciferin 4-monooxygenase (Photinus pyralis, UniProt P08659); assay: firefly luciferase enzyme inhibitors, dose response, biochemical, luminescence (AID 1891)
Luciferin 4-monooxygenase, sequence (P08659 whole entry): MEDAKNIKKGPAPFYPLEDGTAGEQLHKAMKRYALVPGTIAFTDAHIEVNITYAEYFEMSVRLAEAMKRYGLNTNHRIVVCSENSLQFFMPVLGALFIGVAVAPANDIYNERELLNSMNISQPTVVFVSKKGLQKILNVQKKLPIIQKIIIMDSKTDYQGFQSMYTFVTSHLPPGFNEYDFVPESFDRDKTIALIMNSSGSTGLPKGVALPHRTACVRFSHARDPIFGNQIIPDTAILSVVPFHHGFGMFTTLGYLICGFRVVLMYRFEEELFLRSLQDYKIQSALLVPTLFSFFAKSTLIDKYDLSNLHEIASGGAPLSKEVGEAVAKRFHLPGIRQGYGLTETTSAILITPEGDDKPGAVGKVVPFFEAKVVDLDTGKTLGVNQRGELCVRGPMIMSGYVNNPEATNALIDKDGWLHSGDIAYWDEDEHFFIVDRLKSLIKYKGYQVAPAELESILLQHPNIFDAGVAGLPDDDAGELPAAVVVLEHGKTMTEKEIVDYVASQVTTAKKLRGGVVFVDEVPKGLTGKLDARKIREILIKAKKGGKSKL

[4] = Luminescence Cell-Based Dose Confirmation HTS to Identify Inhibitors of Platelet Dense Granule Release. [Related pubchem assays: 1663 (Primary HTS), 1678 (Summary of Project)]; format: functional
Streptococcus = assay: Group A Streptococcus viability loss, dose response, counter-screen for streptokinase expression inhibitor project, luminescence, BacTiterGlo (AID 1915); format: functional, organism-based;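 further: potency for reduction of bacterial viability or growth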
Streptokinase A = target: T1, Streptokinase A (Streptococcus pyogenes serotype M1, UniProt P10520); assay: S. pyogenes streptokinase expression inhibitors, potency, dose response, plasminogen activation absorbance, OD405 (AID 1914); format: functional, Streptococcus pyogenes M1 GAS;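 further: secreted streptokinase activity via plasminogen activation per viability signal from cell pellet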
T1 sequence (P10520 whole entry): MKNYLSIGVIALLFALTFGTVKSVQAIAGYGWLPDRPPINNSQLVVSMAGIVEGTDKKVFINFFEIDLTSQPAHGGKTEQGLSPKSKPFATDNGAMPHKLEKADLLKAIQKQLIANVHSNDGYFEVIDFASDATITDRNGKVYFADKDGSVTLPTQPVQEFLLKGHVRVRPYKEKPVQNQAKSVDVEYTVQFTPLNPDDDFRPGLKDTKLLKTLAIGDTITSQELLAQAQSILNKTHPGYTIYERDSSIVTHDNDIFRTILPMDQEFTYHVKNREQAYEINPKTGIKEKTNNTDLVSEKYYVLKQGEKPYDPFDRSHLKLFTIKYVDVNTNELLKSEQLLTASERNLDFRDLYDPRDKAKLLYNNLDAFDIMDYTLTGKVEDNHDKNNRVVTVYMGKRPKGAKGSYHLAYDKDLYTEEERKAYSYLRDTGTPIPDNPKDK

[5] = tested on: Streptococcus sp. 'group A'; assay: growth inhibition of control SK(-) GAS strain, dose response, counter-screen for streptokinase expression inhibitor project, luminescence, kanamycin, BacTiterGlo, confirmation (AID 1900); format: functional, organism-based
Cytochrome P450 3A4 = Cytochrome P450 3A4 (Homo sapiens, UniProt P08684);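 further: CYP3A4 tested as one member of a cytochrome P450 panel screen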
Cytochrome P450 3A4, sequence (P08684 whole entry): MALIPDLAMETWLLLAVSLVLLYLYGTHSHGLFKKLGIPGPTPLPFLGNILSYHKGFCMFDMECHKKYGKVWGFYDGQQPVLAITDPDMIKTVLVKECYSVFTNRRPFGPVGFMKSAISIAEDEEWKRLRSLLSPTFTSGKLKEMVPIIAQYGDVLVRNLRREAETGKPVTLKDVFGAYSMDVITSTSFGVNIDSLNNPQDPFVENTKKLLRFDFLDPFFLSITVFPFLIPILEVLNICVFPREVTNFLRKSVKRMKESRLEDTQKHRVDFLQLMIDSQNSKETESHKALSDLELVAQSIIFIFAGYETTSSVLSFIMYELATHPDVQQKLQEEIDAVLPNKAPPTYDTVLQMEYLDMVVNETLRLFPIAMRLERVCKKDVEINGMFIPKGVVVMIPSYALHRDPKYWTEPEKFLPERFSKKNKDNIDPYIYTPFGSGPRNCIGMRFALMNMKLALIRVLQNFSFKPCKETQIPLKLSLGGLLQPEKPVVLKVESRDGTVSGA

[6] = Shn3 3'UTR reporter inhibitors, dose response, cell-based, Clone20 osteoblasts, firefly luciferase, cherry-picked (AID 624132); format: functional;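 further: firefly luciferase luminescence from reporter carrying the Shn3 3'UTR in osteoblasts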
[7] = HEp-2 cell cytotoxicity, dose response, cytotoxicity control for RSV inhibitor project, HTS (AID 2410); format: functional; settings: human respiratory syncytial virus
Paired box protein Pax-8 = Paired box protein Pax-8 (Homo sapiens, UniProt Q06710); assay: inhibitors of PAX8-driven TPO luciferase reporter, dose response, RMG-I cells, cherry-pick (AID 687027); format: functional, cell-based;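 further: luciferase reporter driven by Pax8 target thyroperoxidase promoter measured by SteadyGlo luminescence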
Paired box protein Pax-8, sequence (Q06710 whole entry): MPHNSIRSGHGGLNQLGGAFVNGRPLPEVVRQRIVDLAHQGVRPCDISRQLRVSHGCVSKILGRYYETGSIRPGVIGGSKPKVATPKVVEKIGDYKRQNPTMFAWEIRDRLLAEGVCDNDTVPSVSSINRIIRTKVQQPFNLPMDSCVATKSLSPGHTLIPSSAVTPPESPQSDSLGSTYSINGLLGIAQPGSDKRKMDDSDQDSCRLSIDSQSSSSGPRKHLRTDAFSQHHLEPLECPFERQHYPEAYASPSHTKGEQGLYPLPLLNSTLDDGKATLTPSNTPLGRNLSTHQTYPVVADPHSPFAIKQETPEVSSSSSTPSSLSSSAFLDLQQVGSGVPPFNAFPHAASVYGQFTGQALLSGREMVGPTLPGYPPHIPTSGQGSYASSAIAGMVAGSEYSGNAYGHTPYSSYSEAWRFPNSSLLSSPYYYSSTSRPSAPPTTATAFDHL

[8] = inhibitors of intracellular T. cruzi replication, confirmation, NIH3T3 host cells, beta-gal luminescence (AID 2044); format: functional, cell-based;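 further: intracellular parasites grown in NIH/3T3 mouse fibroblasts as host cells; luminescent beta-galactosidase reporter signal from transgenic T. cruzi replicating inside host cells; inhibitors lower the luminescence signal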
[9] = cytotoxicity toward NIH3T3 fibroblasts, dose response, counter-screen, cell-based, ATP luminescence, mouse fibroblasts (AID 2010); format: functional;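 further: cells exposed to compound for about 90 hours before reading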

CCCCC(=O)Nc1ncc([N+](=O)[O-])s1
EC50 [1]: 0.141 µM (active) | EC50 [2]: > 160 µM (inactive)

CC1CCCCN1Cc1nc2c(c(=O)n(C)c(=O)n2C)n1CCCc1ccccc1 (stereo not drawn)
EC50 [3]: > 112 µM (not active) | EC50 [4]: > 112 µM (not active)

Cc1cccc(NC(=O)NC2CCCCCCC2)c1
EC50 [1]: > 38 µM (not active) | EC50 [2]: 24.8 µM (active)

Cc1ccc(NC(=S)NC(=O)C2CC2)cc1Cl
EC50 [1]: 3.32 µM (active) | EC50 [2]: > 160 µM (inactive)

Cc1ccc(C2CC(c3ccccc3OC(F)F)Nc3ncnn32)cc1 (stereo not drawn)
EC50 [3]: > 112 µM (not active) | EC50 [4]: > 112 µM (not active)

Cc1cccc(CCNC(=O)c2cc(S(=O)(=O)N3CCOCC3)cn2C)c1
EC50 [3]: > 112 µM (not active) | EC50 [4]: > 112 µM (not active)

CCOc1ccc(NC(=O)CN(C)C(=O)C2CC(=O)N(c3ccc4c(c3)OCCO4)C2)cc1OCC (stereo not drawn)
EC50 (Streptococcus): > 150 µM (not active) | EC50 (Streptokinase A): > 150 µM (not active) | EC50 [5]: > 150 µM (not active)

Cc1cccc(-n2cnc3c(sc4nc(N5CCOCC5)c5c(c43)CCCC5)c2=O)c1
EC50 [3]: > 112 µM (not active) | EC50 [4]: 50 µM (active)

CCOC(=O)Nc1ccc2c(COC(=O)CNS(=O)(=O)c3cccc(Br)c3)cc(=O)oc2c1
EC50 [3]: > 112 µM (not active) | EC50 [4]: > 112 µM (not active)

Cc1c(NCc2cc(Cl)cc(Cl)c2O)c(=O)n(-c2ccccc2)n1C
EC50 (Streptococcus): > 150 µM (not active) | EC50 (Streptokinase A): 21.1 µM (active) | EC50 [5]: 4.76 µM (active)

Cc1cc(C)c(S(=O)(=O)Nc2cccc(-n3cnnn3)c2)c(C)c1
EC50 [1]: 10.9 µM (active) | EC50 [2]: 29.6 µM (active)

COc1ccc(C(=O)NC(=S)NC(C)(C)C)cc1Br
EC50 [3]: > 112 µM (not active) | AC50 (Cytochrome P450 3A4): 14.1 µM (inconclusive) | EC50 [4]: > 112 µM (not active)

CC(=O)N1CCOc2cc(S(=O)(=O)NCc3ccc(F)cc3)c(C)cc21
AC50 [6]: > 70 µM (inactive)

CCCc1cc(C(=O)NC2CCCC2)no1
EC50 [3]: > 112 µM (not active) | EC50 [4]: > 112 µM (not active)

O=C(Oc1ccc(Cl)c2cccnc12)c1cccc([N+](=O)[O-])c1
EC50 [1]: > 38 µM (not active) | EC50 [2]: 19.9 µM (inconclusive)

O=C(CSC(=S)N1CCOCC1)c1cc(Br)cc(Br)c1O
EC50 (Streptococcus): > 150 µM (not active) | EC50 (Streptokinase A): > 150 µM (not active) | EC50 [5]: 25 µM (active)

O=C(Cc1ccc(Br)cc1)Nc1nc2ccccc2[nH]1
EC50 (Streptococcus): > 150 µM (not active) | EC50 (Streptokinase A): > 150 µM (not active) | EC50 [5]: > 150 µM (not active)

Cc1ccccc1C1CC(c2ccccc2OC(F)F)Nc2ncnn21 (stereo not drawn)
EC50 [3]: > 112 µM (not active) | EC50 [4]: > 112 µM (not active)

Cc1cccc(-n2ncc3c2CCCC3NC(=O)CCN2Cc3ccccc3C2=O)c1C (stereo not drawn)
EC50 (Streptococcus): > 150 µM (not active) | EC50 (Streptokinase A): > 150 µM (not active) | EC50 [5]: > 150 µM (not active)

CCCOC(=O)c1cc(NC(=O)/C=C/c2ccccc2)ccc1O
CC50 [7]: 20.4 µM (active)

CCCc1cc(C(=O)Nc2ccc(C(=O)c3ccc(F)cc3)cc2)n(C)n1
EC50 (Streptococcus): > 150 µM (not active) | EC50 (Streptokinase A): 46.9 µM (active) | EC50 [5]: 19.7 µM (active)

Cc1ccccc1CCNC(=O)C1CCN(S(=O)(=O)c2ccc(-n3cnnn3)cc2)CC1
EC50 [3]: > 112 µM (not active) | EC50 [4]: > 112 µM (not active)

COc1ccc(Cl)cc1C(=O)NCc1ccc2c(c1)OCO2
CC50 [7]: 34.4 µM (active)

COc1cc2c(cc1OC)CN(C(=O)c1ccc3[nH]c(C)c(C)c3c1)CC2
CC50 [7]: > 50 µM (active)

CN(/N=C/c1ccc(O)cc1O)c1nc(-c2ccccc2)cc(-c2ccccc2)n1
AC50 (Paired box protein Pax-8): 26.9 µM (active)

CC1=Nc2ncnn2C(c2cccnc2)/C1=C(\O)OC1CCCCC1 (stereo not drawn)
AC50 (Paired box protein Pax-8): 36.1 µM (active) | EC50 [8]: 2.35 µM (active) | EC50 [9]: > 60 µM (not active)

COC(=O)N/N=C/c1c[n+]([O-])c2ccccc2[n+]1[O-] [CARBADOX]
EC50 (Streptococcus): 11.5 µM (active) | EC50 (Streptokinase A): > 150 µM (not active) | EC50 [5]: 9.12 µM (active)
